In this experiment the target is T1, GST-GlcNAc 2-epimerase-5D (Synechocystis sp. PCC 6803, UniProt P74124).
T1 construct: gene slr1975; 1209 bp PCR fragment
T1 sequence (P74124 1-391): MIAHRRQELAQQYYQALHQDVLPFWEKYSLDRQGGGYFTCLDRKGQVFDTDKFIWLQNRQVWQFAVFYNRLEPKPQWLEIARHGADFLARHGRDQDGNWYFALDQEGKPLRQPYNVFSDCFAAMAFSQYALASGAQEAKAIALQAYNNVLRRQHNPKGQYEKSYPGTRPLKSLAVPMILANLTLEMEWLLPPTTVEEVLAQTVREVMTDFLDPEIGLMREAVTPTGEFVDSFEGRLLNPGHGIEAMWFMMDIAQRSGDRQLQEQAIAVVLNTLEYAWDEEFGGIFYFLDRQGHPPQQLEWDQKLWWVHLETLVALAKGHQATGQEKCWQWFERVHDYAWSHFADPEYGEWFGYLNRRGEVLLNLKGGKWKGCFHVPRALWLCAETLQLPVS
As to the kind of experiment: enzyme inhibition kinetics. Format: biochemical. The note with it: read-out: inhibition constant.

Turning to `CC(=O)C(=O)O` [pyruvate], the Ki is 31 mM.

The values above are taken from PMC2722590, “Production of N-acetyl-D-neuraminic acid using two sequential enzymes overexpressed as double-tagged fusion proteins” (BMC Biotechnology, 2009).
